Source: patent publication US7087620B2, “Liquid pharmaceutical formulations containing 3,7-diazabicyclo[3,3,1]nonane compounds and methods of treatment relating to anti-arrhythmic events” (Solvay Pharmaceuticals GmbH, priority 2002, dated 2006)
“Also recorded” adds a separate entry of the source.

What was measured:
healthy male subjects = experiment: Two step infusion study in healthy male subjects: pharmacodynamics (12-lead ECG: QT, QTc, heart rate); format: in vivo, human; conditions: for Pharmacodynamic action on QT, QTc interval and heart rate: over two hours post dosing
Procedure: A double-blind, placebo-controlled, randomized, single iv dose, two periods cross-over study to assess the safety, tolerability, pharmacodynamics and pharmacokinetics during and following a two step infusion of Tedisamil in healthy male subjects was performed with the following drug and dosages: Tedisamil dihydrochloride/0.4 mg/kg body weight infused over 30 minutes.
• 1. To assess safety and tolerability of tedisamil in healthy male subjects during and following a two step infusion scheme (0.4 mg/kg body weight infused over 30 minutes, with half of the dose infused over 10 minutes and half of the dose infused over the remaining 20 minutes). • 2. […] Methodology:
This was a single center, double-blind, placebo-controlled, randomized, single iv dose, two period cross-over study. Subjects were randomly allocated to either treatment sequence tedisamil-placebo or placebo-tedisamil. Number of patients (planned, screened, randomized and analyzed): Planned: 18, Screened: 27, Randomized: 18, Analyzed: 18 in PK/PD and safety analyses.
Subjects were included in the study only if they were healthy males, their age was in the range of 18-40 years (both inclusive), their body mass index (BMI) was between 18 kg/m^2 and 28 kg/m^2. Test product, dose and mode of administration: Tedisamil dihydrochloride; Strength: 2 mg/ml; Dose: 0.4 mg/kg body weight infused over 30 minutes, with half of the dose infused over 10 minutes and half of the dose infused over the remaining 20 minutes. Route: intravenous.
12-lead ECG.s were taken at several time points to explore the pharmacodynamic effects of Tedisamil (effects on QT and QTc) during and following infusion. The maximum value and maximum increase were derived for QTc and QT and the minimum value and maximum decrease were derived for heart rate. The AUC(0-24) and the maximum for the placebo-corrected QTc and QT and the AUC(0-24) and the minimum for the placebo-corrected heart rate were also calculated.
Descriptive statistics were performed for the ECG intervals QT, QTc, RR, PR, QRS and for heart rate by treatment (tedisamil, placebo and “tedisamil−placebo”) and time point. Individual and mean (arithmetic mean±1 SD) time profiles for ECG intervals and heart rate were graphically presented for both treatments.
Derived parameters, i.e. maximum value and maximum increase for QTc and QT, and minimum value and maximum decrease for heart rate were submitted to separate analyses of (co)variance (covariance only for maximum and minimum values) including subject, treatment, sequence, and period as class effects (and the individual pre-dose value as covariate). Point estimates and 95% confidence intervals were constructed for the difference “tedisamil−placebo” using the residual variance. Model assumptions were checked by visual inspection of residual plots. Additionally, descriptive statistics were calculated for the derived parameters per treatment and for the difference “tedisamil−placebo”.
Descriptive statistics for the placebo corrected AUC(0-24) of QTc, QT and heart rate and the placebo corrected maximum effect (maximum for QTc and QT and minimum for heart rate) were calculated. In addition, 95% confidence intervals were derived based on normally distributed outcomes.

[1] = tested on: patients with atrial fibrillation or flutter; experiment: Safety and tolerability of intravenous tedisamil in patients with atrial fibrillation or flutter; format: in vivo, human
Procedure: The safety objective was: To determine the safety and tolerability of tedisamil versus placebo.
Safety was monitored regarding: Physical examination, ECG, 24-hour Holter monitoring, vital signs, laboratory evaluations and adverse events.
The intent-to-treat patient sample was analyzed for efficacy. All tests were two-sided and a p-value <0.05 was considered significant. Differences in percentages of conversion were compared among the treatment groups using the Pearson chi-square statistic. Safety analysis was conducted on the safety patient sample. Numbers and percentages of patients with adverse events were calculated for each treatment group, using MedDRA preferred terms and body systems. Descriptive statistics were summarized by treatment group for changes from baseline in QT, heart rate and blood pressure.
Physical examination, ECG, 24-hour Holter monitoring, vital signs, laboratory evaluations and adverse events.

[2] = 0.4 mg/kg tedisamil dihydrochloride iv, two step infusion over 30 minutes
[3] = difference tedisamil−placebo, analysis of covariance, 0.4 mg/kg iv two step infusion
[4] = difference tedisamil−placebo, analysis of variance, 0.4 mg/kg iv two step infusion
[5] = placebo-corrected, 0.4 mg/kg iv two step infusion
[6] = two-step infusion regimen, 0.4 and 0.6 mg/kg

With `C1CCC2(C1)C1CN(CC3CC3)CC2CN(CC2CC2)C1` [Tedisamil, N,N′-dicyclopropylmethyl-9,9-tetramethylene-3,7-diazabicyclo[3,3,1]nonane] the “Heart Rate Max. Decrease, Arith. Mean (SD)” value (healthy male subjects; [2]) was 10.6 (3.8) bpm, the “Heart Rate Minimum, Arith. Mean (SD)” value (healthy male subjects; [2]) was 49.2 (7.0) bpm and the “QT Interval Max. Increase, Arith. Mean (SD)” value (healthy male subjects; [2]) was 76.0 (22.4) ms. For the same molecule, the “QT Interval Maximum, Arith. Mean (SD)” value (healthy male subjects; [2]) was 474.2 (39.2) ms, the “QTc Interval Max. Increase, Arith. Mean (SD)” value (healthy male subjects; [2]) was 61.1 (30.3) ms and the “QTc Interval Maximum, Arith. Mean (SD)” value (healthy male subjects; [2]) was 455.9 (30.0) ms. The “Heart Rate Minimum, Estimate (Ted-Pla)” value (healthy male subjects; [3]) was −4.01 bpm, the “QT Interval Maximum, Estimate (Ted-Pla)” value (healthy male subjects; [3]) was 58.4 ms and the “QTc Interval Maximum, Estimate (Ted-Pla)” value (healthy male subjects; [3]) was 34.0 ms. The “Heart Rate Max. Decrease, Estimate (Ted-Pla)” value (healthy male subjects; [4]) was 4.22 bpm, the “QT Interval Max. Increase, Estimate (Ted-Pla)” value (healthy male subjects; [4]) was 57.9 ms and the “QTc Interval Max. Increase, Estimate (Ted-Pla)” value (healthy male subjects; [4]) was 34.1 ms. The “Pharmacodynamic action on QT, QTc interval and heart rate” value (healthy male subjects; two step infusion) was “a marked prolongation of QT and QTc interval and a distinct decrease in heart rate; also recorded: strong effect on QT, QTc and heart in the first two hours post dosing”, the “Pharmacodynamic action on QT, QTc interval and heart rate” value (healthy male subjects; two step infusion, listed as TEDI) was “a prolongation of QT and QTc intervals and a distinct decrease in heart rate” and the “Placebo-corrected Heart Rate AUC(0-24), Mean (SD)” value (healthy male subjects; [5]) was −13.5 (11.5) bpm. The “Placebo-corrected Heart Rate Minimum, Mean (SD)” value (healthy male subjects; [5]) was −15.9 (6.0) bpm, the “Placebo-corrected QT Interval AUC(0-24), Mean (SD)” value (healthy male subjects; [5]) was 112.9 (382.9) ms and the “Placebo-corrected QT Interval Maximum, Mean (SD)” value (healthy male subjects; [5]) was 74.7 (36.7) ms. For the same molecule, the “Placebo-corrected QTc Interval AUC(0-24), Mean (SD)” value (healthy male subjects; [5]) was 28.5 (170.5) ms, the “Placebo-corrected QTc Interval Maximum, Mean (SD)” value (healthy male subjects; [5]) was 63.9 (26.9) ms and the “Effect on AUC(0-24) values of QT, QTc and heart rate” value (healthy male subjects; placebo-corrected, two step infusion) was “A significant effect of Tedisamil could not be found”. The “TdP (Torsade de Point)” value ([1]; 30 min regimen, by gender) was “Almost all observed TdP (Torsade de Point) in 30 min regimen were in female patients”, the “Gender difference in safety issues” value ([1]; first study (Phase II)) was “male patients show less safety issues than female patients” and the “DC cardioversion required for treatment of VTs” value [1, 6] was “no patient required DC cardioversion for treatment of VTs”. The “Sustained polymorphic VT” value [1, 6] was “no sustained polymorphic VT were observed” and the Tolerability in patients [1, 6] was “well tolerated”.
